Data reported in PMC4710668, “Bioactivation of food genotoxicants 5-hydroxymethylfurfural and furfuryl alcohol by sulfotransferases from human, mouse and rat: a comparative study” (Archives of Toxicology, 2014).
Marks after values point to notes of the source that are not given here.

Assays:
Experiment in all cases: FFA sulfoconjugation assay (N6-MF-A formation with adenosine as scavenger)
Format in all cases: biochemical
hSULT1A2 = target: T1, hSULT1A2 (Homo sapiens, UniProt P50226)
T1 construct: made in house; host or cells: Salmonella typhimurium TA1538 (cytosolic fraction, not purified)
Method: (§1) Cytosolic fractions containing individual SULT forms were prepared from transgenic S. typhimurium TA1538. Table S1 in the Supplementary Material provides a summary of the thirty SULTs used in the current study together with references describing the cloning of the respective S. typhimurium TA1538 strains. The expressed SULT forms are denoted with the prefixes h, m and r for human, mouse and rat enzymes, respectively. Bacteria were grown in Luria Broth medium containing ampicillin (100 µg/ml) by stirring for 8 h at 200 revolutions/min at 37 °C. The bacterial suspensions were centrifuged at 5,000 g for 10 min. The sediments were washed twice with 25 ml of 10 mM potassium phosphate buffer (pH 7.4)/50 mM potassium chloride (KCP buffer) and centrifuged again. The pellets were taken up in 800 µl KCP buffer and sonicated thrice for 15 s with 30 s pauses in between. The soluble fraction was attained by centrifuging for 1 h at 100,000 g. The supernatants (in the following termed cytosolic preparations) were frozen at −80 °C. The protein concentrations were determined according to a bicinchoninic acid (BCA) assay protocol. The SULT concentrations in the cytosolic preparations were estimated after electrophoretic separation and immunodetection using inclusion bodies of different SULT forms as standards (Teubner et al. [2007]). The preparation of SULT inclusion bodies and the immunodetection of SULTs is described in the Supplementary Material, which also contains a representative immunoblot of different amounts of rSult1a1standard and a cytosolic preparation of S. typhimurium expressing rSult1a1 (Fig. S1).
(§2) The reaction mixtures were prepared as described for HMF. In addition, they contained 10 mM adenosine as a nucleophilic scavenger. Following incubation for 20 min at 37 °C, sulfoconjugation reactions were stopped by adding 100 µl cold methanol containing 175 fmol of [^15N5]N ^6-MF-A as the internal standard, mixed and centrifuged at 15,000 g for 10 min. The clear supernatants were subjected to UPLC-MS/MS analyses. Incubations were performed as quadruplicates. At higher concentrations, FFA reacts spontaneously with adenosine at low, but detectable, levels. To correct for the SULT-independent adduct formation, mixtures with SULT-deficient cytosols were carried along simultaneously in duplicate. Controls were subtracted from the experimental samples.
(§3) The ribonucleoside adduct N ^6-((furan-2-yl)methyl)-adenosine (N ^6-MF-A) was analyzed by isotope-dilution UPLC-MS/MS with the same system described above using a HSS T3 column (1.8 µm, 2.1 × 100 mm, Waters). Samples of 8 µl were eluted with 10 mM ammonium bicarbonate buffer, pH 8.0 (A) and methanol (B) using an 6-min gradient from 98 % solvent A to 15 % solvent A at 0.35 ml/min flow rate (Yin et al. [2013]). The electrospray interface of the mass spectrometer operated in the positive ion mode. The fragmentations of N ^6-MF-A into the aglycone cation [N ^6-((furan-2-yl)methyl)-adenine-H]^+ (m/z = 348.1 → 216.1), the cleavage of the 2-methylfuranyl cation (m/z = 348.1 → 81.0) and the release of [N ^6-methyl-adenine-H]^+ (m/z = 348.1 → 148.0) were monitored together with the corresponding fragmentations of the isotope-labeled internal standard [^15N5]N ^6-MF-A for the formation of the aglycone (m/z = 353.1 → 221.1), the 2-methylfuran cation (m/z = 353.1 → 81.0) and ^15N5-labeled N ^6-methyl-adenine (m/z = 353.1 → 153.0). The N ^6-MF-A content of the incubation mixture was calculated from the ratio of peak areas resulting from the total ion current of all three MRM signals of the analyte. For the fragmentation of N ^6-MF-A ([^15N5]N ^6-MF-A), collision energies were 20, 25 and 35 eV for the transitions m/z = 348.1 → 216.1 (m/z = 353.1 → 221.1), m/z = 348.1 → 148.0 (m/z = 353.1 → 153.0) and m/z = 348.1 → 81.0 (m/z = 353.1 → 81.0), respectively. […]

hSULT1B1 = target: T2, hSULT1B1 (Homo sapiens, UniProt O43704)
T2 construct: made in house; host or cells: Salmonella typhimurium TA1538 (cytosolic fraction, not purified)
Method: as §1, §2, §3

hSULT1E1 = target: T3, hSULT1E1 (Homo sapiens, UniProt P49888)
T3 construct: made in house; host or cells: Salmonella typhimurium TA1538 (cytosolic fraction, not purified)
T3 sequence (P49888 1-294): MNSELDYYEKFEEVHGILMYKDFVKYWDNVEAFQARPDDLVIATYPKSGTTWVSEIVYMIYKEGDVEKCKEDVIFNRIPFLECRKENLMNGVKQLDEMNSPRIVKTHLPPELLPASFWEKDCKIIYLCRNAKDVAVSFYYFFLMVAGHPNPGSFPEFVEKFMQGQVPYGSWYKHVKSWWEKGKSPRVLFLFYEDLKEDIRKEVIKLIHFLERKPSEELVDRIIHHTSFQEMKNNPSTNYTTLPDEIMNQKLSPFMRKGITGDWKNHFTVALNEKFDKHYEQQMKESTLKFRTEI
Method: as §1, §2, §3

hSULT2A1 = target: T4, hSULT2A1 (Homo sapiens, UniProt Q06520)
T4 construct: made in house; host or cells: Salmonella typhimurium TA1538 (cytosolic fraction, not purified)
T4 sequence (Q06520 1-285): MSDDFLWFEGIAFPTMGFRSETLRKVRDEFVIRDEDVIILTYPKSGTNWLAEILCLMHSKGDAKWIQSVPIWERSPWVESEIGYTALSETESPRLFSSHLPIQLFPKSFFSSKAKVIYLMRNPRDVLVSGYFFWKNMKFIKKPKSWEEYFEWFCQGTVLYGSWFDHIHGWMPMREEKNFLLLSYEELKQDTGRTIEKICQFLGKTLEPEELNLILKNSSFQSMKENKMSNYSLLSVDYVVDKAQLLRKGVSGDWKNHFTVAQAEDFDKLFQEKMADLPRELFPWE
Method: as §1, §2, §3

mSult1c2 = target: T5, mSult1c2 (Mus musculus, UniProt Q9D939)
T5 construct: made in house; host or cells: Salmonella typhimurium TA1538 (cytosolic fraction, enzyme not purified)
Method: as §1, §2, §3

[1] = 1 mM FFA, corrected by actual SULT concentration in the cytosolic preparation

T1 sequence (P50226 whole entry): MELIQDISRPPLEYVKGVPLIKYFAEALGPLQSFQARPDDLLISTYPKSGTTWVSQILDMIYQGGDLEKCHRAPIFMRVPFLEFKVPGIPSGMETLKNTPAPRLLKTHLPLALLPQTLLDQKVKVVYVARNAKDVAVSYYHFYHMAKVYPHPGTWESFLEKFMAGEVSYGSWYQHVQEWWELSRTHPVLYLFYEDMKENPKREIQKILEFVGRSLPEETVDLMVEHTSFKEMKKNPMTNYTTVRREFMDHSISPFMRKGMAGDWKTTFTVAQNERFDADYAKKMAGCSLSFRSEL
T5 sequence (Q9D939 whole entry): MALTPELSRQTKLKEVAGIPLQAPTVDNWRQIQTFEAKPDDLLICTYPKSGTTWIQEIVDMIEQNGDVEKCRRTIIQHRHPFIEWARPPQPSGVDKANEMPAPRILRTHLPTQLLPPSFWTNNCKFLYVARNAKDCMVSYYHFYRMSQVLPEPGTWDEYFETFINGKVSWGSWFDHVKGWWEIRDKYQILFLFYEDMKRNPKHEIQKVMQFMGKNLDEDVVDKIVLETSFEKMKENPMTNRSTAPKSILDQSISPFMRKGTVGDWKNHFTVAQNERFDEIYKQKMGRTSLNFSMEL
T2 sequence (O43704 whole entry): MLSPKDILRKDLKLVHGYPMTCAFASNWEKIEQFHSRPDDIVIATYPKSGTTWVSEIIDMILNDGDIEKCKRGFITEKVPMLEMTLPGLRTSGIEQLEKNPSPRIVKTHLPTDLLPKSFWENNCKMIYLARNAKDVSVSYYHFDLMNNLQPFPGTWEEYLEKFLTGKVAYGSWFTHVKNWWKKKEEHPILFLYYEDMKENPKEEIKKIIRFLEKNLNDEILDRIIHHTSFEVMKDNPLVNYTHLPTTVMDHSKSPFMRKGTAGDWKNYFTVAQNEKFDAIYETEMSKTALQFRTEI

OCc1ccco1 [FFA, furfuryl alcohol]
Rate of N6-MF-A formation (hSULT1A2; 0.1 mM FFA): <18 fmol N ^6-MF-A/mg/min | Rate of N6-MF-A formation (hSULT1A2; 1 mM FFA): 34.8 ± 0.5 fmol N ^6-MF-A/mg/min | Rate of N6-MF-A formation (corr.) (hSULT1A2; [1]): 2,480 ± 30 fmol N ^6-MF-A/mg/min | Rate of N6-MF-A formation (hSULT1A2; 10 mM FFA): 150 ± 4 fmol N ^6-MF-A/mg/min | Rate of N6-MF-A formation (hSULT1B1; 0.1 mM FFA): 23.3 ± 0.3 fmol N ^6-MF-A/mg/min | Rate of N6-MF-A formation (hSULT1B1; 1 mM FFA): 211 ± 2 fmol N ^6-MF-A/mg/min | Rate of N6-MF-A formation (corr.) (hSULT1B1; [1]): 5,010 ± 50 fmol N ^6-MF-A/mg/min | Rate of N6-MF-A formation (hSULT1B1; 10 mM FFA): 1,070 ± 20 fmol N ^6-MF-A/mg/min | Rate of N6-MF-A formation (hSULT1E1; 0.1 mM FFA): <18 fmol N ^6-MF-A/mg/min | Rate of N6-MF-A formation (hSULT1E1; 1 mM FFA): <20 fmol N ^6-MF-A/mg/min | Rate of N6-MF-A formation (hSULT1E1; 10 mM FFA): 47.0 ± 0.9 fmol N ^6-MF-A/mg/min | Rate of N6-MF-A formation (hSULT2A1; 0.1 mM FFA): <18 fmol N ^6-MF-A/mg/min | Rate of N6-MF-A formation (hSULT2A1; 1 mM FFA): 37.0 ± 0.6 fmol N ^6-MF-A/mg/min | Rate of N6-MF-A formation (corr.) (hSULT2A1; 1 mM FFA, corrected by SULT concentration reported in Meinl et al. [2006]): 2,110 ± 40^b fmol N ^6-MF-A/mg/min | Rate of N6-MF-A formation (hSULT2A1; 10 mM FFA): 386 ± 6 fmol N ^6-MF-A/mg/min | Rate of N6-MF-A formation (mSult1c2; 0.1 mM FFA): <18 fmol N ^6-MF-A/mg/min | Rate of N6-MF-A formation (mSult1c2; 1 mM FFA): <20 fmol N ^6-MF-A/mg/min | Rate of N6-MF-A formation (mSult1c2; 10 mM FFA): <44 fmol N ^6-MF-A/mg/min
